Entries after “also recorded” stand apart in the source; their conditions may differ.
How the values were obtained:
[1] = tested on: KPTR1, KPTR4 and KPTR5 melanoma cell lines; assay: Cell cycle analysis (BrdU incorporation in vitro) in murine melanoma cell lines; format: cell-based; details: 24 hours treatment
Text: FIG. 2C is a set of graphs showing the dose-response curves for cell cycle analysis in murine (KPTR1, KPTR4 and KPTR5 from TyrRAS+Ink4a/Arf−/−mice) melanoma cell lines. […] The percentage of cells in the G1 phase is indicated by the data shown in the closed squares. The percentage of cells in the S phase is shown by the data in the open triangles. The percentage of cells in the G2/M phase is indicated by the data in the open circles. The percentage of cells actively proliferating as marked by Ki67 positive staining is shown in closed diamonds. Error bars are +/− the standard error of the mean (SEM).
Cell Lines: KPTR1, KPTR4. and KPTR5 were derived from tumor-bearing TyrRAS+Ink4a/Arf−/− by standard procedures and cultured in RPMI+10% fetal bovine serum (FBS). Telomerized HDFs (tHDFs, also known as HS68) were cultured in DMEM+10% FBS with penicillin and streptomycin. […]
BrdU Incorporation in vitro: Cells were plated and allowed to adhere overnight or at least 6 hours prior to adding CDK4/6 inhibitor at the indicated concentrations. […] The cells were then washed, trypsinized, pelleted, fixed, permeabilized, stained, and measured on a flow cytometer as described in manufacturer directions for the BrdU Kit (BD Biosciences Pharmingen, San Diego, Calif., United States of America).

[2] = tested on: bone marrow cells; assay: Bone marrow cellularity, immunophenotypic frequency, apoptosis and viability; format: in vivo, mice; details: 48 hour treatment
Experimental: For HSPC proliferation experiments, mice received daily oral gavage with PD0332991 for 2 days with 1 mg BrdU intraperitoneal injection every 6 hours for 24 hours prior to sacrifice. BM-MNC harvest and immunophenotyping was performed using RBC lysis, biotin-conjugated Lin-panel incubation (Invitrogen Corporation, Carlsbad, Calif., United States of America), paramagnetic bead-conjugated straptavidin (Miltinyi Biotec, Bergisch Gladbach, Germany) incubation, and magnetic depletion using an AutoMACS (Miltinyi Biotec, Bergisch Gladbach, Germany). At least 2×10^6 Lin-depleted cells per mouse were incubated with fluorescently labeled antibodies against cell surface antigens used to identify hematopoietic progenitor subpopulations as previously described (see Passegue et al., J. Exp. Med., 202, 1599-1611 (2005); and Kiel et al., Cell, 121, 1109-1121 (2005): CD34-FITC, CD16/32-PacificBlue, IL7Ra-PE-Cy5, and cKit-APC-Alexa750 from eBiosciences, Inc. (San Diego, Calif., United States of America); Sca1-PE-Cy7, CD150-PE-Cy5, and CD48-PacificBlue from BioLegend (San Diego, Calif., United States of America); and Aqua Live/Dead viability dye (Invitrogen Corporation, Carlsbad, Calif., United States of America). Streptavidin-PE-TexasRed (Invitrogen Corporation, Carlsbad, Calif., United States of America) was used to confirm efficiency of lineage-depletion. After cell surface staining, cells were fixed, permeabilized, and stained with antibodies against Ki67-FITC, BrdU-APC, and caspase3-PE (BD Biosciences Pharmingen, San Diego, Calif., United States of America).
In all experiments, gating based on isotype controls was used as appropriate. Flow cytometry was performed using a CyAn ADP (Dako, Glostrup, Denmark) and analyzed with FlowJo software (Tree Star, Ashland, Oreg., United States of Ameria). For each bone marrow sample, a minimum of 200,000 cells were analyzed. For cell culture samples, a minimum of 20,000 cells were analyzed.
The effects on immunophenotypic HSPC frequency were validated by other methods.

[3] = tested on: mice exposed to total body irradiation
Text: FIG. 16 is set of bar graphs showing the hematocrit or cell counts of different lineages of blood cells from mice 143-242 days following exposure to a lethal dose (7.5 gray (Gy)) or sub-lethal dose (6.5 Gy) of total body irradiation (TBI). Data for mice treated with 6-acetyl-8-cyclopentyl-5-methyl-2-(5-piperazin-1-yl-pyridin-2-ylamino)-8H-pyrido-[2,3-d]pyrimidin-7-one (PD 0332991) prior to 6.5 Gy TBI is shown in the solid bars and data for mice treated with PD 0332991 prior to 7.5 Gy TBI is shown in the stippled bars. […] Myeloid cell count is the sum of granulocytes and monocytes.

Structure (SMILES): CC(=O)c1c(C)c2cnc(Nc3ccc(N4CCNCC4)cn3)nc2n(C2CCCC2)c1=O [PD0332991, 6-acetyl-8-cyclopentyl-5-methyl-2-(5-piperazin-1-yl-pyridin-2-ylamino)-8H-pyrido-[2,3-d]-pyrimidin-7-one]
- sensitivity of derivative tumor cell lines in vitro [1]: insensitive
- HSC and MPP frequencies [2]: relative increase; also recorded: relative enrichment
- Lin− or HSC apoptosis or viability [2]: without altering
- absolute number of lineage negative cells [2]: did decrease
- frequency of oligopotent progenitors (Lin−cKit+Sca1−) [2]: declined
- total marrow cellularity [2]: did not decrease
- deaths ([3]; 6.5 Gy TBI, followed 210-274 days post-TBI): no deaths
- deaths among 29 mice surviving acute toxicity ([3]; 7.5 Gy TBI, remaining mice disease free 101-251 days post-TBI): one death of unknown cause at day 99
- blood counts on long-term surviving animals vs unirradiated ([3]; long-term after TBI): comparable
- myeloproliferative disorder or myelodysplasia ([3]; mouse, in vivo): No evidence
